Source: patent US5804599A, “Interleukin-1 production inhibiting compound” (Kyowa Hakko Kogyo Co., Ltd., priority 1994, dated 1998)
Values after ≈ are worked out from the molar mass of the structure shown. Where two headings read alike, the source gives them in different places.

Experiments:
bacteria = settings: in words; cited from earlier work
IL-1 β = assay: Inhibiting activity of the production of IL-1 (LPS-stimulated, PMA-differentiated THP-1 cells, ELISA); type: cell-based; settings: Homo sapiens, read-out: IC50 (50% inhibitory concentration) of IL-1 production
Procedure: Inhibiting Activity of the production of IL-1
With respect to Compound (I) of the present invention, the inhibiting activity of production of IL-1 β derived from THP-1 cells (ATCC No. TIB 202) of a human monocyte was examined. The amount of IL-1 β was determined by the ELISA method.
The THP-1 cells were suspended in an RPMI 1640 culture solution comprising 10% inactivated fetal bovine serum at a concentration of 1×10^5 cells/ml. The suspension was charged in a 24-well plate at a volume of 1 ml/well. PMA (phorbol 12-myristate 13-acetate, made by Wako Pure Chemical Industries, Ltd.; final concentration 30 nM) was added thereto, and the mixture was cultured in a mixed gas of 5% CO2 and 95% air at 37° C. for 65 hours. The cells were differentiated in a macrophage form.
The cultivation plate was gently washed with a serum-free RPMI 1640 culture solution to remove the cells not adhered thereto, and the residue was cultured for 4 hours in a serum-free RPMI 1640 culture solution (1 ml/well) to which LPS (lipopolysaccharide, made by Difco Laboratories; a final concentration 25 μg/ml) and a compound to be tested were added simultaneously.
After the completion of the cultivation, the amount of IL-1 β which was released in the cultivated supernatant was determined using an IL-1 β determination kit (made by Amersham Corp.).
Percent inhibition of IL-1 production was calculated using the following equation to obtain IC50 (50% inhibitory concentration).
Percent inhibition of IL-1 production (%) =[(A-B)/(A-C)]×100
A: amount of IL-1 produced when only LPS is added
B: amount of IL-1 produced when LPS and the compound to be tested are added
C: amount of IL-1 when LPS is not added

[1] = test system: Bacillus subtilis No. 10707; assay: Antibacterial activity (MIC), agar dilution method; type: cell-based; settings: pH 7.0
Procedure: (§1) Antibacterial activity was determined by an agar dilution method using a medium (pH 7.0) comprising 3 g/l bactotrypton (made by Difco Laboratories), 3 g/l meat extract, 1 g/l yeast extract, 1 g/l glucose and 16 g/l agar.

[2] = test system: Enterococcus faecium ATCC 10541; assay: Antibacterial activity (MIC), agar dilution method; type: cell-based; settings: ATCC10541, pH 7.0
Procedure: as §1

[3] = test system: Staphylococcus aureus ATCC 6538P; assay: Antibacterial activity (MIC), agar dilution method; type: cell-based; settings: ATCC6538P, pH 7.0
Procedure: as §1

[4] = IL-1 β release from THP-1 cells, LPS 25 μg/ml, 4 hours, serum-free RPMI 1640

SMILES | antibacterial activity (bacteria) | MIC [1] [µg/mL] | MIC [2] [µg/mL] | MIC [3] [µg/mL] | other results
CCCCC(C)/C=C(\C)C(=O)NC1=CC(O)(/C=C/C=C/C=C/C(=O)NC2=C(O)CCC2=O)C2OC2C1=O (stereo not drawn) [Manumycin B] | known to exhibit antibacterial activity | – | – | – | –
CCC(C)/C=C/C=C/C=C/C(=O)NC1=CC(O)(/C=C/C=C/C=C/C(=O)NC2=C(O)CCC2=O)C2OC2C1=O (stereo not drawn) [EI-1511-5] | – | 20 (≈ 38.4 µM) | 20 (≈ 38.4 µM) | 20 (≈ 38.4 µM) | IC50 (IL-1 β; THP-1, 4 h): 3.6 µM; Solubility (Solubility; in acetone): easily soluble; Solubility (Solubility; in dimethyl sulfoxide): easily soluble; Solubility (Solubility; in methanol): soluble
CCCCC(C)/C=C(C)/C=C/C(=O)NC1=CC(O)(/C=C/C=C/C=C/C(=O)NC2=C(O)CCC2=O)C2OC2C1=O (stereo not drawn) [Manumycin C] | known to exhibit antibacterial activity | – | – | – | –
CCCC[C@@H](C)/C=C(C)/C=C(\C)C(=O)NC1=C[C@@](O)(/C=C/C=C/C=C/C(=O)NC2=C(O)CCC2=O)[C@@H]2O[C@@H]2C1=O [Manumycin A] | known to exhibit antibacterial activity | – | – | – | –
CC(C)C/C=C/C=C/C=C/C(=O)NC1=CC(O)(/C=C/C=C/C=C/C(=O)NC2=C(O)CCC2=O)C2OC2C1=O (stereo not drawn) [U-56407] | known to exhibit antibacterial activity | – | – | – | –
CC(C)C/C=C/C=C/C(=O)NC1=CC(O)(/C=C/C=C/C=C/C(=O)NC2=C(O)CCC2=O)C2OC2C1=O (stereo not drawn) [EI-1511-3] | – | 20 (≈ 40.4 µM) | 20 (≈ 40.4 µM) | 20 (≈ 40.4 µM) | IC50 (IL-1 β; [4]): 5.4 µM; Solubility (Solubility; in acetone): easily soluble; Solubility (Solubility; in dimethyl sulfoxide): easily soluble; Solubility (Solubility; in methanol): soluble
CCCCC(C)/C=C/C(=O)NC1=CC(O)(/C=C/C=C/C=C/C(=O)NC2=C(O)CCC2=O)C2OC2C1=O (stereo not drawn) [EI-1625-2] | – | 5 (≈ 10.1 µM) | 20 (≈ 40.3 µM) | 10 (≈ 20.1 µM) | IC50 (IL-1 β; [4]): 5.4 µM
O=C(/C=C/C=C/C1CCCCC1)NC1=CC(O)(/C=C/C=C/C=C/C(=O)NC2=C(O)CCC2=O)C2OC2C1=O (stereo not drawn) [Alisamycin] | known to exhibit antibacterial activity | – | – | – | –
CC(C)/C=C/C=C/C=C/C(=O)NC1=C[C@@](O)(/C=C/C=C/C=C/C(=O)NC2=C(O)CCC2=O)C2OC2C1=O (stereo partly drawn) [Manumycin G] | known to exhibit antibacterial activity | – | – | – | –
